From patent US9278990B2, “Substituted nucleotide analogs” (priority 2010, dated 2016) come the findings set out here.

pIC50: −log10 of the molar value.

The first test has as its target T1, NS5B570-Con1 (Delta-21) (Hepatitis C virus genotype 1b, UniProt Q9WMX2).
T1 construct: NS5B570-Con1 (Delta-21)
As to the kind of experiment: NS5B inhibition assay. The format is biochemical, HCV. Conditions: IC50 value, incorporation of tritiated NMP into acid-insoluble RNA, 2 hours at 37° C. As to the method:
The enzyme activity of NS5B570-Con1 (Delta-21) was measured as an incorporation of tritiated NMP into acid-insoluble RNA products. The complementary IRES (cIRES) RNA sequence was used as a template, corresponding to 377 nucleotides from the 3′-end of HCV (−) strand RNA of the Con-1 strain, with a base content of 21% Ade, 23% Ura, 28% Cyt, and 28% Gua. The cIRES RNA was transcribed in vitro using a T7 transcription kit (Ambion, Inc.) and purified using the Qiagen RNeasy maxi kit. HCV polymerase reactions contained 50 nM NS5B570-Con1, 50 nM cIRES RNA, about 0.5 μCi tritiated NTP, 1 μM of competing cold NTP, 20 mM NaCl, 40 mM Tris-HCl (pH 8.0), 4 mM dithiothreitol, and 4 mM MgCl2. Standard reactions were incubated for 2 hours at 37° C., in the presence of increasing concentration of inhibitor. At the end of the reaction, RNA was precipitated with 10% TCA, and acid-insoluble RNA products were filtered on a size exclusion 96-well plate. After washing of the plate, scintillation liquid was added and radio labeled RNA products were detected according to standard procedures with a Trilux Topcount scintillation counter.
As to `C[C@@]1(O)[C@H](O)[C@@H](COP(O)(=S)OP(=O)(O)OP(=O)(O)O)O[C@H]1n1ccc(=O)[nH]c1=O` (single isomer, unassigned) [Compound 5b], the pIC50 is greater than 6.00.

For `C[C@@]1(F)[C@H](O)[C@@H](COP(O)(=S)OP(=O)(O)OP(=O)(O)O)O[C@H]1n1ccc(=O)[nH]c1=O` (single isomer, unassigned) [Compound 5c], the pIC50 was 5.00 to 6.00.

With `C[C@@]1(F)[C@H](O)[C@@H](COP(O)(=S)OP(=O)(O)OP(=O)(O)O)O[C@H]1n1ccc(=O)[nH]c1=O` (single isomer, unassigned) [Compound 5d], the pIC50 is 4.00 to 5.00.

With `C[C@@]1(F)[C@H](O)[C@@H](COP(O)(=S)OP(=O)(O)OP(=O)(O)O)O[C@H]1n1cnc2c(=O)[nH]c(N)nc21` (single isomer, unassigned) [Compound 5e], the pIC50 was greater than 6.00.

In the case of `C[C@@]1(O)[C@H](O)[C@@H](COP(O)(=S)OP(=O)(O)OP(=O)(O)O)O[C@H]1n1cnc2c(=O)[nH]c(N)nc21` (single isomer, unassigned) [Compound 5g], the pIC50 is greater than 6.00.

As to `C[C@@]1(O)[C@H](O)[C@@H](COP(O)(=S)OP(=O)(O)OP(=O)(O)O)O[C@H]1n1cnc2c(=O)[nH]c(N)nc21` (single isomer, unassigned) [Compound 5h], the pIC50 was 5.00 to 6.00.

The same test, now with this note: read-out: IC50 value, incorporation of tritiated NMP into acid-insoluble RNA, 2 hours at 37° C.
As to `C[C@@]1(F)[C@H](O)[C@@H](COP(O)(=S)OP(=O)(O)OP(=O)(O)O)O[C@H]1n1cnc2c(=O)[nH]c(N)nc21` (single isomer, unassigned) [Compound 5f], the pIC50 is greater than 6.00.
